One assay deals with DU-145. The assay can be described thus: Cytotoxicity against Homo sapiens (human) DU145 cells assessed as inhibition of cell survival after 96 hr by MTT assay. Format: functional, cell-based.
A further assay relates to MES-SA. The assay is described as follows: Cytotoxicity against Homo sapiens (human) MES-SA cells assessed as inhibition of cell survival after 96 hr by MTT assay. Format: functional, cell-based. Background: Tetrazolium dyes change colour on reduction, which living cells bring about.
Assay [1] can be described thus: Cytotoxicity against Homo sapiens (human) MES-SA/Dx5 cells assessed as inhibition of cell survival after 96 hr by MTT assay. Format: functional, cell-based.
A further assay has as its system MCF7. The assay can be described thus: Cytotoxicity against Homo sapiens (human) MCF7 cells assessed as inhibition of cell survival after 96 hr by MTT assay. The format is functional, cell-based.
A short description of assay [2]: Antioxidant activity measured after 3 min by ferric thiocyanate method. The format is functional.
Assay [3] in a line: Cytotoxicity against Homo sapiens (human) H460 cells assessed as inhibition of cell survival after 96 hr by MTT assay. The format is functional, cell-based, NCI-H460.
Assay [4] can be described thus: Antioxidant activity measured after 10 min by thiobarbituric acid method. The format is functional.
[5] abbreviates: Homo sapiens, DU-145, 96 h, read-out: IC50.
Setting [6] is: Homo sapiens, MCF7, 96 h, read-out: IC50.
Where [7] appears, read: Homo sapiens, NCI-H460, 96 h, read-out: IC50.
The mark [8] stands for this setting: Homo sapiens, MES-SA, 96 h, read-out: IC50.
Where [9] appears, read: Homo sapiens, MES-SA/Dx5, 96 h, read-out: IC50.

Among the data in ChEMBL document CHEMBL3046480, “Synthesis of damnacanthal, a naturally occurring 9,10-anthraquinone and its analogues, and its biological evaluation against five cancer cell lines” (Med Chem Res, 2013) are IC50 and Activity values, retold here.

Calls of active or inactive are those of the source. The calls are words filed in the database; no cut-off is given here.

Broadly, the IC50 is the concentration that gives 50% inhibition. Regarding `COc1ccc(OC)c2c1C(=O)c1ccccc1C2=O` [1,4-DIMETHOXYANTHRAQUINONE], the IC50 in the assay with DU-145 (setting [5]) was 69 µM; in the assay with MES-SA (mes-sa) it was “Not Active”; in assay [1] (mes-sa/dx5), “Not Active”; in the assay with MCF7 (setting [6]), 70 µM; in assay [3] (setting [7]), 71 µM. For the same compound, the outcome in assay [2] was inactive.

For the compound `O=C1c2ccccc2C(=O)c2cc(O)ccc21` [2-HYDROXYANTHRAQUINONE], the IC50 in the assay on DU-145 (setting [5]) was 72 µM; in the assay on MES-SA (mes-sa), “Not Active”; in assay [1] (mes-sa/dx5) it was “Not Active”; in the assay with MCF7 (setting [6]) it was 69 µM; in assay [3] (setting [7]) it was 66 µM. Moreover, in assay [2], the result was inactive.

As to `COc1c(C=O)c(O)c(Br)c2c1C(=O)c1ccccc1C2=O`, the IC50 with DU-145 (setting [5]) was 34 µM; with MES-SA (mes-sa), “Not Active”; in assay [1] (mes-sa/dx5) it was “Not Active”; in the assay on MCF7 (setting [6]), 19 µM; in assay [3] (setting [7]), 32 µM. In addition, the outcome in assay [2] was inactive.

`O=C1c2ccccc2C(=O)c2c(Br)ccc(O)c21`: the IC50 with DU-145 (setting [5]) came to 27 µM; in the assay with MES-SA (setting [8]), 14 µM; in assay [1] (setting [9]), 20 µM; in the assay with MCF7 (setting [6]), 36 µM; in assay [3] (setting [7]) it was 20 µM. Also, the outcome in assay [2] was inactive.

VITAMIN E: in assay [2], the result was Active.

For the compound `COc1cc2c(c(O)c1CBr)C(=O)c1ccccc1C2=O`, the IC50 is 26 µM in the assay on DU-145 (setting [5]); 4 µM with MES-SA (setting [8]); “Not Active” in assay [1] (mes-sa/dx5); 34 µM in the assay on MCF7 (setting [6]); 30 µM in assay [3] (setting [7]). Besides, in assay [2], the outcome was inactive.

In the case of `CC(=O)Oc1cc2c(c(O)c1C)C(=O)c1ccccc1C2=O`, the IC50 is 37 µM with DU-145 (setting [5]); “Not Active” in the assay on MES-SA (mes-sa); “Not Active” in assay [1] (mes-sa/dx5); 56 µM in the assay with MCF7 (setting [6]); 68 µM in assay [3] (setting [7]). The outcome in assay [2] was inactive.

Turning to `COc1c(C)c(OC(C)=O)cc2c1C(=O)c1ccccc1C2=O`, the IC50 in the assay on DU-145 (setting [5]) was 27 µM; with MES-SA (mes-sa), “Not Active”; in assay [1] (mes-sa/dx5), “Not Active”; with MCF7 (setting [6]) it was 26 µM; in assay [3] (nci-h460), “Not Active”. The result in assay [2] was inactive.

For the compound `Cc1c(O)c(Br)c2c(c1O)C(=O)c1ccccc1C2=O`, the half-inhibitory concentration (IC50) with DU-145 (setting [5]) amounted to 31 µM; in the assay with MES-SA (setting [8]) it was 20 µM; in assay [1] (setting [9]) it was 30 µM; in the assay on MCF7 (setting [6]), 28 µM; in assay [3] (setting [7]) it was 19 µM. Besides, the outcome in assay [2] was inactive.

For `O=C1c2ccccc2C(=O)c2c(O)cc(Br)cc21`, the IC50 result (with DU-145 (du-145); in the assay on MES-SA (mes-sa); in assay [1] (mes-sa/dx5); in the assay on MCF7 (mcf7); in assay [3] (nci-h460)) was “Not Active” in each case. For the same compound, in assay [2], the result was inactive.

In the case of `COc1cc2c(c(OC)c1C(Br)Br)C(=O)c1ccccc1C2=O`, the IC50 is 28 µM in the assay with DU-145 (setting [5]); 10 µM in the assay on MES-SA (setting [8]); 7 µM in assay [1] (setting [9]); 27 µM in the assay with MCF7 (setting [6]); 23 µM in assay [3] (setting [7]). Also, the result in assay [2] was inactive.

`COc1cc2c(c(OC)c1C=O)C(=O)c1ccccc1C2=O`: the IC50 in the assay on DU-145 (setting [5]) was 32 µM; in the assay on MES-SA (setting [8]) it was 5 µM; in assay [1] (mes-sa/dx5), “Not Active”; in the assay on MCF7 (setting [6]), 55 µM; in assay [3] (setting [7]), 65 µM. Further, in assay [2], the outcome was inactive.

For `Cc1c(O)cc2c(c1O)C(=O)c1ccccc1C2=O` [Rubiadin], the IC50 in the assay on DU-145 (setting [5]) came to 32 µM; with MES-SA (setting [8]), 38 µM; in assay [1] (setting [9]) it was 35 µM; in the assay with MCF7 (setting [6]), 56 µM; in assay [3] (setting [7]) it was 42 µM. In assay [2], the outcome was inactive.

With `O=C1c2ccccc2C(=O)c2c(O)ccc(O)c21` [QUINIZARIN], the IC50 result (in the assay with DU-145 (du-145); in the assay with MES-SA (mes-sa); in assay [1] (mes-sa/dx5); in the assay with MCF7 (mcf7); in assay [3] (nci-h460)) was “Not Active” each time. Further, the outcome in assay [2] was inactive.

On to `O=Cc1c(O)cc2c(c1O)C(=O)c1ccccc1C2=O`, for which the IC50 was 42 µM in the assay on DU-145 (setting [5]); 18 µM in the assay with MES-SA (setting [8]); “Not Active” in assay [1] (mes-sa/dx5); 36 µM in the assay with MCF7 (setting [6]); 40 µM in assay [3] (setting [7]). For the same compound, the outcome in assay [2] and in assay [4] was Active.

Turning to `COc1cc2c(c(OC)c1C)C(=O)c1ccccc1C2=O`, the IC50 entry (with DU-145 (du-145); with MES-SA (mes-sa); in assay [1] (mes-sa/dx5); with MCF7 (mcf7); in assay [3] (nci-h460)) was “Not Active” in each case. The result in assay [2] was inactive.

For `CCOCc1c(OC(C)=O)cc2c(c1OC)C(=O)c1ccccc1C2=O`, the IC50 with DU-145 (setting [5]) is 23 µM; with MES-SA (mes-sa), “Not Active”; in assay [1] (mes-sa/dx5), “Not Active”; in the assay with MCF7 (setting [6]), 30 µM; in assay [3] (nci-h460), “Not Active”. Also, the result in assay [2] was inactive.

As to `COc1ccc(C)c2c1C(=O)c1ccccc1C2=O`, the IC50 is 48 µM in the assay with DU-145 (setting [5]); 19 µM in the assay on MES-SA (setting [8]); “Not Active” in assay [1] (mes-sa/dx5); 55 µM with MCF7 (setting [6]); 54 µM in assay [3] (setting [7]). In assay [2], the result was inactive.

Take `O=C1c2ccccc2C(=O)c2c(Br)cc(O)cc21`: the IC50 came out at 44 µM in the assay on DU-145 (setting [5]); 56 µM in the assay with MES-SA (setting [8]); 29 µM in assay [1] (setting [9]); 27 µM in the assay with MCF7 (setting [6]); 43 µM in assay [3] (setting [7]). Also, the outcome in assay [2] was inactive.

`O=C1c2ccccc2C(=O)c2c(O)cccc21` [1-HYDROXYANTHRAQUINONE]: the IC50 entry (in the assay with DU-145 (du-145); in the assay with MES-SA (mes-sa); in assay [1] (mes-sa/dx5); in the assay with MCF7 (mcf7); in assay [3] (nci-h460)) was “Not Active” each time. Further, in assay [2], the result was inactive.

For `O=C1c2ccccc2C(=O)c2c(O)cc(O)cc21` [XANTHOPURPURIN], the IC50 in the assay with DU-145 (setting [5]) stood at 29 µM; with MES-SA (setting [8]) it was 30 µM; in assay [1] (setting [9]) it was 21 µM; in the assay with MCF7 (setting [6]), 55 µM; in assay [3] (setting [7]), 23 µM. Also, the outcome in assay [2] was inactive.

For the compound `COc1c(CBr)c(OC(C)=O)cc2c1C(=O)c1ccccc1C2=O`, the concentration for half-maximal inhibition (IC50) with DU-145 (setting [5]) is 5 µM; with MES-SA (mes-sa), “Not Active”; in assay [1] (mes-sa/dx5), “Not Active”; in the assay on MCF7 (setting [6]) it was 6 µM; in assay [3] (setting [7]) it was 26 µM. Further, in assay [2], the result was inactive.

In the case of `COc1c(C=O)c(O)cc2c1C(=O)c1ccccc1C2=O` [DAMNACANTHAL], the half-inhibitory concentration (IC50) in the assay on DU-145 (setting [5]) was 26 µM; in the assay with MES-SA (mes-sa), “Not Active”; in assay [1] (mes-sa/dx5), “Not Active”; in the assay on MCF7 (setting [6]), 11 µM; in assay [3] (setting [7]), 25 µM. For the same compound, the result in assay [2] and in assay [4] was Active.

For `O=C1c2ccccc2C(=O)c2cc(Br)c(O)cc21`, the IC50 entry (with DU-145 (du-145); in the assay on MES-SA (mes-sa); in assay [1] (mes-sa/dx5); with MCF7 (mcf7); in assay [3] (nci-h460)) was “Not Active” each time. Also, the result in assay [2] was inactive.

With `CCOCc1c(OC)cc2c(c1OC)C(=O)c1ccccc1C2=O`, the IC50 result (in the assay on DU-145 (du-145); in the assay with MES-SA (mes-sa); in assay [1] (mes-sa/dx5); in the assay on MCF7 (mcf7); in assay [3] (nci-h460)) was “Not Active” throughout. The result in assay [2] was inactive.

Take `COc1ccc2c(c1)C(=O)c1ccccc1C2=O` [2-METHOXYANTHRAQUINONE]: the IC50 in the assay with DU-145 (setting [5]) is 70 µM; in the assay on MES-SA (mes-sa), “Not Active”; in assay [1] (mes-sa/dx5), “Not Active”; in the assay on MCF7 (setting [6]) it was 68 µM; in assay [3] (setting [7]) it was 68 µM. The outcome in assay [2] was inactive.

Take `CCOCc1c(O)cc2c(c1OC)C(=O)c1ccccc1C2=O`: the IC50 with DU-145 (setting [5]) is 50 µM; in the assay on MES-SA (mes-sa) it was “Not Active”; in assay [1] (mes-sa/dx5), “Not Active”; in the assay with MCF7 (setting [6]) it was 35 µM; in assay [3] (nci-h460), “Not Active”. Also, the outcome in assay [2] was inactive.

For the compound `COc1ccc(O)c2c1C(=O)c1ccccc1C2=O`, the IC50 in the assay with DU-145 (setting [5]) is 74 µM; in the assay on MES-SA (mes-sa), “Not Active”; in assay [1] (mes-sa/dx5), “Not Active”; in the assay with MCF7 (setting [6]) it was 79 µM; in assay [3] (setting [7]), 82 µM. The outcome in assay [2] was inactive.

With `COc1cc2c(c(OC)c1CBr)C(=O)c1ccccc1C2=O`, the IC50 in the assay on DU-145 (setting [5]) was 4 µM; in the assay on MES-SA (setting [8]), 2 µM; in assay [1] (setting [9]), 2 µM; in the assay on MCF7 (setting [6]), 8 µM; in assay [3] (setting [7]) it was 5 µM. Besides, the result in assay [2] was inactive.

For `Cc1cc(C(C)(C)C)c(O)c(C(C)(C)C)c1`, in assay [2], the outcome was Active.

As for `Cc1ccc(O)c2c1C(=O)c1ccccc1C2=O`, the IC50 entry (in the assay with DU-145 (du-145); in the assay on MES-SA (mes-sa); in assay [1] (mes-sa/dx5); in the assay on MCF7 (mcf7); in assay [3] (nci-h460)) was “Not Active” in each case. For the same compound, the outcome in assay [2] was inactive.

On to `O=C1c2ccccc2C(=O)c2c1ccc(O)c2O`, for which the outcome in assay [2] and in assay [4] was Active.
